This passage reports XC50 results from ChEMBL document CHEMBL1157539, “Thousands of chemical starting points for antimalarial lead identification” (Nature, 2010).

This test concerns Plasmodium falciparum. Put plainly: GSK_TCMDC: Inhibition of Plasmodium falciparum 3D7 in whole erythrocytes, using parasite LDH activity as an index of growth. Type of test: functional, organism-based. Particulars: Plasmodium falciparum, 3D7.
Take `COc1c(I)cc(Cc2cnc(N)nc2N)cc1I`: the XC50 amounted to 930 nM. With `CN(Cc1ccc(-c2ccc(C(F)(F)F)cc2)cc1)C(=O)Cn1c(CCc2cccc(F)c2F)cc(=O)c2ccc(OCCCN3CCCCC3)cc21` the figure was 706 nM; with `O=C(/C=C/c1ccc(Cl)c(Cl)c1)NCCCCCCN1CCN(C(=O)Nc2ccc(Cl)c(Cl)c2)CC1`, 931 nM; with `COc1cccc(C2CCN(CCN3CCC(NC(=O)c4ccc(-c5ccc(Cl)cc5)cc4)CC3)CC2)c1`, 1090 nM.

The compound `Cc1nc(-c2ccccc2)nc(N2CCN(C(=O)c3ccco3)CC2)c1Cc1ccccc1F` returned an XC50 of 927 nM. Under `N#Cc1ccc(-c2ccc(C(=O)Nc3ccc4c(c3)CCN(C3CCC3)CC4)nc2)cc1` stands 696 nM; under `O=C(NCc1cccc(C(F)(F)F)c1)C(c1cc2ccccc2o1)N1CCN(C(c2ccccc2)c2ccccc2)CC1` (stereo not drawn), 498 nM; under `CC(C)CN1CCN(c2nc(C#N)c3c(c2C(=S)NC2CCCCC2)CC(C)(C)OC3)CC1`, 296 nM.

Take `Cc1ccc(NC(=O)Cc2noc(CC3CCCN3C(=O)N[C@@H](C)c3ccccc3)n2)cc1` (stereo partly drawn): the XC50 turned out to be 369 nM.

Compound `CCC(C)NC(=O)CN1CN(c2ccccc2)C2(CCN(C(=O)c3ccc(-c4ccccc4)cc3)CC2)C1=O` (stereo not drawn) gave an XC50 of 128 nM.

The compound `O=C(Nc1cccc(-c2cccc(-c3nc4ccccc4[nH]3)c2)c1)Nc1ccc2c(c1)OCO2` had an XC50 of 167 nM.

In the case of `Clc1ccc(C=NN=c2cc[nH]c3ccccc23)cc1`, the XC50 was 723 nM. On to `COc1cc(C(=O)NC2CCN(Cc3ccccc3)CC2)ccc1-c1nc2cc(Cl)c(Cl)cc2[nH]1`, for which the XC50 was 521 nM. Consider `O=C(Nc1ccc2[nH]c(-c3ccccc3)nc2c1)c1cc(-c2ccc3c(c2)OCCO3)n[nH]1`, for which the XC50 amounted to 769 nM. Under `O=[N+]([O-])c1ccc(Oc2c(Cl)cc(S(=O)(=O)N3CCC(CN4CCC(c5c[nH]c6ccccc56)CC4)CC3)cc2Cl)c(Cl)c1` stands 998 nM; under `O=C(NC1CCN(Cc2ccccc2)CC1)c1cccc(-c2cc3cc(Cl)c(Cl)cc3[nH]2)c1`, 725 nM; under `CCOc1cc(C(=O)NCCc2ccc(Cl)c(Cl)c2)ccc1-c1nc2cc(Cl)ccc2[nH]1`, 895 nM. Compound `COc1ccc2[nH]cc(C3CCN(CCCCNC(=O)c4ccc(NC(=O)c5ccc(Cl)cc5)cc4)CC3)c2c1` had an XC50 of 1020 nM. With `c1ccc2oc(-c3cc4ccncc4cc3OC3CCNCC3)cc2c1` the figure was 1470 nM. With `Cn1nccc1C(=O)NCCNCc1cccc(-c2ccc(-c3nc4cc(C(F)(F)F)ccc4[nH]3)s2)c1` the figure was 151 nM; with `CCOc1ccc2c(=NN=Cc3c4ccccc4cc4ccccc34)cc(C)[nH]c2c1`, 1070 nM. For `COc1ccccc1-c1cccc(-c2cccc(NC(=O)c3ccc([N+](=O)[O-])o3)c2)n1`, the XC50 stood at 603 nM.

`CCCc1ccc(NC(=O)c2cccc(CN3CCCN(Cc4cccc(O)c4)CC3)c2)cc1` displayed an XC50 of 748 nM. As to `CC(C)C1C(O)=C(c2ccc3ccccc3c2)C(=O)N1Cc1ccsc1` (stereo not drawn), the XC50 worked out at 1070 nM.

`COc1ccc(Nc2nc(NN=Cc3cc(Br)c(O)cc3O)nc(Nc3ccc([N+](=O)[O-])cc3)n2)cc1`: the XC50 was determined as 896 nM.

`CCc1cc2c(=O)c(-c3nc(C)cs3)c([C@H](N)Cc3ccc(O)cc3)oc2cc1O` had an XC50 of 902 nM. Under `CC[C@H]1CN2CC[C@H]1C[C@H]2[C@H](O)c1cc(-c2ccc3ccccc3c2)nc2ccc(OC)cc12` stands 104 nM; under `CN(c1cc(NC(=O)c2cccs2)ccn1)C1CCN(Cc2ccccc2)CC1`, 1020 nM; under `COc1cc(C=C(C2=NC(=O)CS2)c2nc3cccnc3n2C)ccc1O`, 1000 nM. With `CN1CCCC1CNS(=O)(=O)c1ccc(C(=O)NCC2CC2)cc1` (stereo not drawn) the figure was 174 nM; with `CC(C)COc1ccc(Cl)cc1Cc1ccc(-c2nc3ccc(C(F)(F)F)cc3[nH]2)o1`, 847 nM.

Compound `Cc1cc(F)ccc1-c1nc(Nc2ccncc2)c2ccn(C)c2n1` yielded an XC50 of 940 nM. For `CCC(C)NCc1c(O)ccc2c(CNC(C)CC)c(O)ccc12` (stereo not drawn), the XC50 is 592 nM. With `COc1ccc(Nc2ncc(Cl)c(Nc3cccnc3C(N)=O)n2)cc1N1CCN(C)CC1` the figure was 225 nM; with `CS(=O)(=O)c1ccc2c(c1)CCN(CCC1CCC(NC(=O)C(=Cc3ccc(Cl)cc3Cl)c3ccc(-c4ccccc4)cc3)CC1)CC2` (stereo not drawn), 1170 nM. Under `COc1cc2c(cc1OC)C(C)(C)CN1Cc3c(c(CO)c(OC)c(OC)c3OC)CC21` (stereo not drawn) stands 782 nM. In the case of `CCN(C)CCCn1c(N(C)C)nc2cc(-n3cnc4cc(-c5ccc(Cl)cc5)sc4c3=O)ccc21`, the XC50 came to 1090 nM. Under `CN1CCC(N2CCN(Cc3ccc(-c4ccc(-c5nc6cc(F)ccc6[nH]5)s4)cc3)CC2)CC1` stands 153 nM; under `O=C(/C=C/c1ccc(Cl)c(Cl)c1)NCCCCCN1CCCC(CNC(=O)Nc2ccc(Oc3ccccc3)cc2)C1` (stereo not drawn), 783 nM.

Compound `CCn1c(SCc2ccc(F)cc2)nc2sc3c(c2c1=O)CCN(C)C3` returned an XC50 of 254 nM. Take `COc1cccc(CNC[C@@H](O)[C@H](Cc2ccccc2)NC(=O)c2cc(C(C)C)cc(N3CCCC3=O)c2)c1`: the XC50 is 953 nM. Turning to `NC(=O)C1CCN(Cc2ccc(-c3ccc(-c4nc5cc(C(F)(F)F)ccc5[nH]4)s3)cc2)CC1`, the XC50 worked out at 540 nM. For `O=C(Nc1cccc(-c2cccc(F)c2)c1)C1CCN(Cc2ccc(O)cc2)CC1`, the XC50 is 1730 nM. Consider `O=C(/C=C/c1ccc(Cl)c(Cl)c1)NCCCCCN1CCC(NC(=S)Nc2cccc(Cl)c2)CC1`, for which the XC50 was determined as 873 nM. Compound `O=C(C=Cc1ccc(Cl)c(Cl)c1)NCCCCCN1CCCC(CCCNC(=O)c2ccc3c(c2)OCO3)C1` (stereo not drawn) had an XC50 of 1220 nM. `Cc1cccc(NC(=S)NC2CCN(CCCCCNC(=O)/C=C/c3ccc(Cl)c(Cl)c3)CC2)c1` displayed an XC50 of 948 nM.

`CN1CCN(c2ccc3[nH]c(-c4ccc(Cc5cc(Cl)ccc5OCc5ccccc5)o4)nc3c2)CC1` came in with an XC50 of 807 nM. `CCC(C)CN1CCC(N(C)c2cc(NC(=O)c3cccc(C)c3)ccn2)CC1` (stereo not drawn): the XC50 worked out at 937 nM.

Consider `CCCC(C)Nc1nc(C)cc(N[C@@H](Cc2ccccc2)C(=O)Nc2ccc(OC)cc2)n1` (stereo partly drawn), for which the XC50 came out at 1120 nM. In turn, `COc1ccc2nccc([C@@H](O)CN3CCC(NC(=O)/C=C/c4ccc(F)c5ccccc45)CC3)c2c1` displayed an XC50 of 184 nM.

Regarding `CC[C@H]1CN2CC[C@@H]1C[C@H]2[C@H](O)c1cc(N2CCC(O)(c3ccc(Cl)cc3)CC2)nc2ccc(OC)cc12`, the XC50 stood at 71 nM.

`COc1ccc(CC(C)CON2C(N)=NC(N)=NC2(C)C)cc1` (stereo not drawn) displayed an XC50 of 3.2 nM.

Compound `Fc1ccc(-c2cncc(Nc3ccncc3)n2)cc1` returned an XC50 of 1320 nM. Under `COc1cccc(-c2ccc(NC(=O)C3CCCN(Cc4cccc(OC)c4O)C3)cc2)c1` (stereo not drawn) stands 847 nM; under `c1cc(CNC2CCN(CC3CCCCC3)CC2)cc(-n2ccnc2)c1`, 650 nM; under `Oc1ccc(Cc2ccccc2)cc1CNC1CCCCC1`, 188 nM. The compound `COc1cc(C)c(NC(=O)c2cccc3c(=O)c(C)c(-c4ccccc4)oc23)cc1OC` registered an XC50 of 1630 nM. With `OCC(CO)(CO)NCc1ccc2c3c(cccc13)-c1ccccc1-2` the figure was 1260 nM; with `CC(C)c1ccc(NC(=O)c2ccc(CN3CCCN(Cc4cccc(O)c4)CC3)cc2)cc1`, 679 nM; with `COc1cccc(C(=O)Nc2ccc(S(=O)(=O)c3cc4c(cc3OC)CCN(C)CC4)cc2)c1`, 1100 nM. Under `O=C1OC(c2ccccc2)(c2ccccc2)CN1CC1CCN(Cc2ccc(O)c(Cl)c2)CC1` stands 818 nM. Under `O=S(=O)(NCCN1CCCC1)c1cccc(-c2cccc(CNCc3ccsc3)c2)c1` stands 872 nM; under `CC1(C)N=C(N)N=C(N)N1O`, 192 nM. Take `CCN(CC)/C(=N/C(=N)Nc1ccc(C)cc1)NCCCCCCN/C(=N\C(=N)Nc1ccc(C)cc1)N(CC)CC`: the XC50 is 539 nM. `Cc1cc2nc(-c3ccc(C(=O)NCc4ccc(Cl)c(Cl)c4)cc3)[nH]c2cc1C` displayed an XC50 of 828 nM. `O=C(N1CCN(c2cccc(C(F)(F)F)c2)CC1)C(Cl)(Cl)Cl` gave an XC50 of 887 nM.

`COc1ccc(NS(=O)(=O)c2ccc(C(=O)Nc3ccc(C(F)(F)F)cc3)cc2)cc1N1CCN(CC2CC2)CC1`: the XC50 was 832 nM.

`Cc1cc2c(cc1C(F)(F)F)N(C(=O)Nc1ccc(C(=O)NC3CCN(Cc4ccccc4)C3)cc1)CC2` (stereo not drawn): the XC50 is 776 nM. Under `Fc1ccc2[nH]c(-c3ccc(-c4ccc(CNCCc5ccncc5)cc4)cc3)nc2c1` stands 142 nM; under `COCC(=O)Nc1nc2ccccc2[nH]1`, 301 nM. With `COc1cc(CNC[C@@H](O)[C@H](Cc2ccccc2)NC(=O)c2cc(C3CCCC3)cc(N3CCCCS3(=O)=O)c2)cc(OC)c1`, the XC50 was 704 nM. `COc1ccc(CNCc2ccc(F)cc2)cc1-c1ccc(OC)c(S(=O)(=O)NCCN2CCCC2)c1` came in with an XC50 of 786 nM. With `c1cc(CNCCc2ccncc2)cc(-c2ccc(-c3nc4ccccc4[nH]3)s2)c1` the figure was 336 nM.

`CC(C)(C)c1ccc(OC(=O)c2ccc(NC(=O)N[C@@H](Cc3ccc(O)cc3)C(=O)NC3CCN(Cc4ccc(O)cc4)C3)cc2)cc1` (stereo partly drawn) returned an XC50 of 814 nM. `CN(C)CCCn1c(C(=O)OC(c2ccccc2)c2ccccc2)cc2cc(OCc3ccccc3)ccc21` registered an XC50 of 201 nM. With `N#Cc1ccc2[nH]cc(C(=O)CCCCCN(Cc3ccccc3)Cc3ccccc3)c2c1` the figure was 785 nM; with `Cc1ccc(CN2CCCN(Cc3cccc(NC(=O)c4ccc(Cl)c(Cl)c4)c3)CC2)cc1`, 902 nM; with `O=C(Nc1cccc(-c2cccc(-c3nc4cc(C(F)(F)F)ccc4[nH]3)c2)c1)c1ccncc1`, 201 nM. With `Cc1[nH]c(C)c(-c2ccc(OCCCc3ccccn3)cc2)c(=O)c1Br`, the XC50 is 212 nM. Under `Cc1cn(CC(=O)Nc2cccc(-c3cccc(-c4nc5cc(C(F)(F)F)ccc5[nH]4)c3)c2)c(=O)[nH]c1=O` stands 681 nM; under `O=C(Nc1cc(F)cc(F)c1)N[C@H]1CCN(CCCCCNC(=O)C2CC2c2ccc(Cl)c(Cl)c2)C1` (stereo partly drawn), 1080 nM; under `Cc1cccc(Nc2nccc(NCC(O)c3ccc(C(F)(F)F)cc3)n2)c1` (stereo not drawn), 555 nM.

The compound `O=C(NCCCCCN1CCC(c2c[nH]c3ccccc23)CC1)Nc1ccc(Cl)cc1Cl` came in with an XC50 of 716 nM.
